No end group written: not given here.
Tests used:
[1] = Stability in lysate of mouse cerebral cortex; assay type: in vitro ADME
Description: (§1) For intraventricular administration, GPPGPAG was dissolved in artificial cerebrospinal fluid (ACSF; 130 mM NaCl, 24 mM NaHCO3, 3.5 mM KCl, 1.3 mM Na2HPO4, 2 mM CaCl2, 2 mM MgCl2 6H2O, and 10 mM glucose at pH 7.4) for use. GPPGPAG or ACSF was continuously injected for 28 days into the left ventricle (bregma: −0.2 mm, lateral: 1.0 mm, depth: −3.0 mm) using Alzet Osmotic Pump (1004, DURECT Corporation, CA, United States) and ALZET Brain Infusion Kit 3 (DURECT Corporation). Based on the amount of CSF produced which was 18 μL/h and the pump flow rate of 0.11 μL/h, the peptide in the pump was estimated to be diluted 164 times in the CSF to reach a final concentration 10 nM which was the effective dose in the cultured neuron experiments. Therefore 1.64 µM GPPGPAG was loaded into the pump. Stability of GPPGPAG in saline, mouse plasma and mouse cerebral cortex was confirmed by LC-MS quantification. GPPGPAG was mixed with saline or plasma at 5 μg/ml concentration. Otherwise, GPPGPAG was mixed with cortical lysate at 6.5 μg/g of cortex. After incubation at 37°C for 0, 10, 60, and 180 min, samples were dried up and served to LC-MS. Areas of MS peaks of GPPGPAG were quantified. […]
(§2) Stability of GPPGPAG in biological fluids.
(§3) (A) GPPGPAG was mixed with saline at 5 μg/ml concentration. (B) GPPGPAG was mixed with mouse plasma at 5 μg/ml concentration. […]

[2] = Body weight during i.c.v. infusion; assay type: in vivo, mouse; details: i.c.v. infusion for 28 days
Description: FIGURE 4 Effect of i.c.v. infusion of GPPGPAG on object recognition memory deficits in 5XFAD mice (A) GPPGPAG or vehicle solution (artificial cerebrospinal fluid; ACSF) was continuously administered to the lateral ventricle for 28 days in mice (male and female, 24–27 weeks old). The dose of GPPGPAG was set as 10 nM in CSF. An object recognition test was carried out with a 3 h interval time. The preferential indices of the training and test sessions are shown. *p < 0.05 vs. vehicle-treated 5XFAD mice, repeated measures two-way ANOVA with post hoc Bonferroni’s test. mean ± standard error. Wild-type (male, n = 5), vehicle-treated 5XFAD mice (male, n = 2; female, n = 2), GPPGPAG-infused 5XFAD mice (male, n = 2; female, n = 3). (B) Locomotion was evaluated by open field test. Distance moved and duration with immobility were shown. mean ± standard error (C) Changed values of body weight of mice during whole experimental period are shown.
P re fe re n tia l in d e x (% ) […]
Effect of i.c.v. infusion of GPPGPAG on object recognition memory deficits in 5XFAD mice
(A) GPPGPAG or vehicle solution (artificial cerebrospinal fluid; ACSF) was continuously administered to the lateral ventricle for 28 days in mice (females, 5 - 7 months old). The dose of GPPGPAG was set as 10 nM in ACSF. An object recognition test was carried out with a 24 h interval time. […] (B) Locomotion was evaluated by open field test. […]

[3] = Stability in mouse plasma; assay type: in vitro ADME; details: 5 μg/ml, 37°C, 0, 10, 60, 180 min, LC-MS, n = 1
Description: as §1, §2, §3

- stability, amount remaining (MS peak area) ([1]; fresh lysate of mouse cerebral cortex, 6.5 μg/g of cortex, 37°C, 0, 10, 60, 180 min, LC-MS, n = 1): declined at 60 min after the incubation
- time retained in the brain after entering ([1]; inferred from stability in plasma and cortical lysate): ≤ 10 min
Substance: GPPGPAG [GPPGPAG]
- body weight ([2]; 5XFAD mice, 10 nM in CSF): not significantly changed
- body weight ([2]; female 5XFAD mice, 10 nM, separately performed experiment): no significant difference
- stability, amount remaining (MS peak area) [3]: gradually reduced after 60-min incubation
